T1: Solute carrier organic anion transporter family member 2B1 (Homo sapiens, UniProt O94956)
T1 sequence (O94956 whole entry): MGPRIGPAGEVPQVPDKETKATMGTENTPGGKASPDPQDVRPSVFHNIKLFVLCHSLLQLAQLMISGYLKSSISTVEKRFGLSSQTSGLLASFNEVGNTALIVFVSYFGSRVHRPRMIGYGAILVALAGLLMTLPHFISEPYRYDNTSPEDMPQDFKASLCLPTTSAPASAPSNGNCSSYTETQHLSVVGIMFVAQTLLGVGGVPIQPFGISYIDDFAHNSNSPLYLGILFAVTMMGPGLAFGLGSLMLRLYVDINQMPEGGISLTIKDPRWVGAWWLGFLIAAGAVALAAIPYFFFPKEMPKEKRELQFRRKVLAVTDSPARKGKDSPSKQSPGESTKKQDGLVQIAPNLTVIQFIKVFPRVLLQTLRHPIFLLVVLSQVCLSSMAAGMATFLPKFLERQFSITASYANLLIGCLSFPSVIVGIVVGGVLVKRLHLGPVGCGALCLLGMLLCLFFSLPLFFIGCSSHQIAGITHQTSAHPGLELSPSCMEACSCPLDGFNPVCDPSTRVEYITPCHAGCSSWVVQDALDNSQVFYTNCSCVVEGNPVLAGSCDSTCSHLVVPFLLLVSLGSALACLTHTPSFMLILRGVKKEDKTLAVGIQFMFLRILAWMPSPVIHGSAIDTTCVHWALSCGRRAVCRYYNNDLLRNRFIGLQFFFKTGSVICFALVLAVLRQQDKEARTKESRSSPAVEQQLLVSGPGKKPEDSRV

T2: OATP2B1 (Homo sapiens, UniProt O94956)
T2 sequence (O94956 whole entry): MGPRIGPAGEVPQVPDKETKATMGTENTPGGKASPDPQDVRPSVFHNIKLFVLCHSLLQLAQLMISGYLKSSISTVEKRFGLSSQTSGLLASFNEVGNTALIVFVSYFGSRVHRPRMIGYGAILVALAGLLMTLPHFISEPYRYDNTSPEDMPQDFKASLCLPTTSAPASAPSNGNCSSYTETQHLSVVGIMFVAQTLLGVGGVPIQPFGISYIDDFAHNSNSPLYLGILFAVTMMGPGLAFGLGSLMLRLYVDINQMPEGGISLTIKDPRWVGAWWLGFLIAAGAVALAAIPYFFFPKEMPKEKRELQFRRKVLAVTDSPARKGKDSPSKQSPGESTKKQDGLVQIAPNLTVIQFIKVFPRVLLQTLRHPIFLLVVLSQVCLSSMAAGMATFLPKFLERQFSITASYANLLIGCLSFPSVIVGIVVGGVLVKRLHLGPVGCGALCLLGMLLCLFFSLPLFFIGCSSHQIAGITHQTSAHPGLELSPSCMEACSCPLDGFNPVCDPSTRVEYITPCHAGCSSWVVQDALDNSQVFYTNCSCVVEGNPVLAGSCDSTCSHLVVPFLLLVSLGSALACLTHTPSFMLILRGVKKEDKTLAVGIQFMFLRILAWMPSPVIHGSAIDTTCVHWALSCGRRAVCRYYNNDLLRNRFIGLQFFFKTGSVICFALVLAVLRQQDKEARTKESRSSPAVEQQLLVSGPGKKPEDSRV


Tests used:
Type in all cases: functional, cell-based
[1] = target: T1, Solute carrier organic anion transporter family member 2B1; assay: TP_TRANSPORTER: inhibition of glibenclamide uptake (glibenclamide: 10nM) in OATP2B1-expressing HEK293 cells; set-up: scale not given: the % may be the effect or the level left
[2] = target: T2, OATP2B1; assay: (§1) TP_TRANSPORTER: inhibition of Estrone-3-sulfate uptake (Estrone-3-sulfate: 10nM) in OATP2B1-expressing HEK293 cells; set-up: scale not given: the % may be the effect or the level left; conditions: HEK293 cells expressing OATP2B1, probe Estrone-3-sulfate (10 nM)
[3] = target: T1, Solute carrier organic anion transporter family member 2B1; assay: as §1; set-up: scale not given: the % may be the effect or the level left; conditions: hek293
[4] = target: T1, Solute carrier organic anion transporter family member 2B1; assay: TP_TRANSPORTER: uptake of DHEAS at a concentration of 17.4nM in OATP2B1-expressing HEK293 cells
[5] = substrate: COc1ccc(Cl)cc1C(=O)NCCc1ccc(S(=O)(=O)NC(=O)NC2CCCCC2)cc1; assay: (§2) TP_TRANSPORTER: uptake in OATP2B1-expressing HEK293 cells
[6] = substrate: C[C@]12CC[C@@H]3c4ccc(OS(=O)(=O)O)cc4CC[C@H]3[C@@H]1CCC2=O; assay: as §2

Molecule	Activity [1]	Activity [2]	other results
C/C(=C\COc1c2ccoc2cc2oc(=O)ccc12)CCC(O)C(C)(C)O (stereo not drawn) [DIHYDROXYBERGAMOTTIN]	35%	58%	–
COc1ccc(-c2cc(=O)c3c(OC)c(OC)c(OC)c(OC)c3o2)cc1 [TANGERETIN]	25%	89%	–
GRAPEFRUIT JUICE	38%	–	Activity [3]: 18%
CC(C)=CCC/C(C)=C/COc1c2ccoc2cc2oc(=O)ccc12 [BERGAMOTTIN]	is not an inhibitor [(-)]	40%	–
C[C@]12CC[C@H](OS(=O)(=O)O)CC1=CC[C@@H]1[C@@H]2CC[C@]2(C)C(=O)CC[C@@H]12 [PRASTERONE SULFURIC ACID]	–	–	Activity [4]: substrate [+]
C[C@@H]1O[C@@H](O[C@H]2[C@H](Oc3cc(O)c4c(c3)O[C@H](c3ccc(O)cc3)CC4=O)O[C@H](CO)[C@@H](O)[C@@H]2O)[C@H](O)[C@H](O)[C@H]1O [NARINGIN]	70%	61%	–
APPLE JUICE	is not an inhibitor [(-)]	–	Activity [3]: 89%
O=c1c(O)c(-c2ccc(O)c(O)c2)oc2cc(O)cc(O)c12 [QUERCETIN]	is not an inhibitor [(-)]	80%	–
ORANGE JUICE	50%	–	Activity [3]: 45%
COc1ccc(-c2cc(=O)c3c(OC)c(OC)c(OC)c(OC)c3o2)cc1OC [NOBILETIN]	58%	40%	–
O=C1C[C@@H](c2ccc(O)cc2)Oc2cc(O)cc(O)c21 [NARINGENIN]	45%	72%	–
Solute carrier organic anion transporter family member 2B1 (Homo sapiens) (protein) MGPRIGPAGEVPQVPDKETKATMGTENTPGGKASPDPQDVRPSVFHNIKLFVLCHSLLQLAQLMISGYLKSSISTVEKRFGLSSQTSGLLASFNEVGNTALIVFVSYFGSRVHRPRMIGYGAILVALAGLLMTLPHFISEPYRYDNTSPEDMPQDFKASLCLPTTSAPASAPSNGNCSSYTETQHLSVVGIMFVAQTLLGVGGVPIQPFGISYIDDFAHNSNSPLYLGILFAVTMMGPGLAFGLGSLMLRLYVDINQMPEGGISLTIKDPRWVGAWWLGFLIAAGAVALAAIPYFFFPKEMPKEKRELQFRRKVLAVTDSPARKGKDSPSKQSPGESTKKQDGLVQIAPNLTVIQFIKVFPRVLLQTLRHPIFLLVVLSQVCLSSMAAGMATFLPKFLERQFSITASYANLLIGCLSFPSVIVGIVVGGVLVKRLHLGPVGCGALCLLGMLLCLFFSLPLFFIGCSSHQIAGITHQTSAHPGLELSPSCMEACSCPLDGFNPVCDPSTRVEYITPCHAGCSSWVVQDALDNSQVFYTNCSCVVEGNPVLAGSCDSTCSHLVVPFLLLVSLGSALACLTHTPSFMLILRGVKKEDKTLAVGIQFMFLRILAWMPSPVIHGSAIDTTCVHWALSCGRRAVCRYYNNDLLRNRFIGLQFFFKTGSVICFALVLAVLRQQDKEARTKESRSSPAVEQQLLVSGPGKKPEDSRV	–	–	Km [5]: 6.26 µM; Km [6]: 7.14 µM

From ChEMBL document CHEMBL2074136, “Citrus juices inhibit the function of human organic anion-transporting polypeptide OATP-B” (Drug Metab Dispos, 2005)
